What was measured:
Type in all cases: cell-based
A2058 = assay: Short-term growth-inhibition assay (Example 1)
Experimental: (§1) FIGS. 1A-1B: Short-term growth-inhibition assay of a panel of melanoma cell lines including BRAF (V600E) cell lines and an NRAS (Q61R) mutated cell line. FIG. 1A. Cells were treated with increasing concentrations of N-[3-[(5-Chloro-1H-pyrrolo[2,3-b]pyridin-3-yl)carbonyl]-2,4-difluorophenyl]-1-propanesulfonamide (PLX-4720) for 72 h and cell viability was determined using CellTiter-Blue by measuring the absorbance at 540 nm in a microplate reader. Error bars show data +standard error. Means were derived from four replicates (n=4). FIG. 1B. Long-term colony formation assay of the indicated cells. Cells were grown in the absence or presence of PLX-4720 at the indicated concentrations for 15-20 days. For each cell line, all dishes were fixed at the same time, stained and photographed. […]
(§2) The inventors quantified the effect of exposing these cell lines to PLX-4720 on the half-maximum inhibitory concentration (IC50) (Table 1).

Mel624 = assay: Short-term growth-inhibition assay (Example 1)
Experimental: as §1, §2

A375 = assay: Short-term growth-inhibition assay, PLX-4720 (Example 1); details: Homo sapiens, A-375; A375 cell line; read-out: half-maximum inhibitory concentration (IC50)
Experimental: (§3) FIGS. 1A-1B: Short-term growth-inhibition assay of a panel of melanoma cell lines including BRAF (V600E) cell lines and an NRAS (Q61R) mutated cell line. FIG. 1A. Cells were treated with increasing concentrations of N-[3-[(5-Chloro-1H-pyrrolo[2,3-b]pyridin-3-yl)carbonyl]-2,4-difluorophenyl]-1-propanesulfonamide (PLX-4720) for 72 h and cell viability was determined using CellTiter-Blue by measuring the absorbance at 540 nm in a microplate reader. Error bars show data +standard error. Means were derived from four replicates (n=4). FIG. 1B. Long-term colony formation assay of the indicated cells. Cells were grown in the absence or presence of PLX-4720 at the indicated concentrations for 15-20 days. For each cell line, all dishes were fixed at the same time, stained and photographed.
(§4) Cell proliferation was measured using a WST-1 reagent (Roche Applied Science, IN, USA). Melanoma cells were plated with 5000 cells per well in 96-well tissue culture plates. After 24 hours, the cells were treated with drugs or DMSO at the indicated concentrations, in triplicates. WST-1 reagent was added to the wells and incubated at 37° C. for 2 hours before and after the treatment period of 48 hours. The plates were then read at 450 nm on a Wallac Victor^3 1420 Multilabel Counter (Perkin Elmer, ON, Canada). Absorbance readings are expressed in terms of cell proliferation as percent of the control cells growth within the 48 hours of treatment.
as §2

SK-Mel28 = assay: as above; details: Homo sapiens, SK-MEL-28; SK-Mel28 cell line; read-out: half-maximum inhibitory concentration (IC50)
Experimental: as §3, §4, §2

[1] = system: eIF4E-eIF4G and eIF4E-4EBP1 interactions; assay: Proximity ligation assay in cell lines
Excerpt: FIGS. 4A-4B: The interactions between eIF4E and eIG4G (“Cap-ON”) and between […] (“Cap-OFF” interaction) are (FIG. 4A) visualized by the PLA technique and (FIG. 4B) quantified (number of points per 100 nucleus) using ImageJ for the indicated cell lines and treatments.
FIGS. 5A-5C: The interactions between eIF4E and eIF4G (“Cap-ON”) and between […] (“Cap-OFF” interaction) are (FIG. 5A) visualized by the PLA technique and (FIG. 5B) quantified (number of points per 100 nucleus) using ImageJ for the indicated cell lines and treatments. (FIG. 5C) Cells were treated with increasing concentrations of PLX-4720 for 72 h, and cell viability was determined using CellTiter-Blue by measuring the absorbance at 540 nm in a microplate reader. Error bars show datatstandard error. Means were derived from four replicates (n=4).
FIGS. 9A-9B: The formation of the eIF4F translation initiation complex is associated with resistance to anti-BRAF inhibitors. FIG. 9A: Quantification of the proximity ligation assay showing the number of red spots (corresponding to the interactions between eIF4E-elF4G or eIF4E-4EBP1) per 100 nuclei (quantified with the Volocity software). Data are means±s.d. (n=3). Significance determined by Mann-Whitney U test (*P<0.05, **P<0.01). FIG. 9B: The eIF4E-eIF4G and eIF4E-4EBP1 interactions detected by in situ proximity ligation assay in vemurafenib (6 μM)-treated (24 h) or untreated HT29 colon cancer cell line and BCPAP thyroid cancer cell line respectively. The interactions were visualised as red fluorescent spots by the scanner Olympus VS120. Cell nuclei were stained with DAPI (blue).
Proximity ligation assays (PLAs) were performed on both fixed and permeabilized transfected cell lines in chamber slides and TMA slides containing melanoma tissue. Following dewaxing and rehydrating of tissue sections, antigen retrieval was performed by heating the slides for 30 min at 95° C. in TE buffer, pH 9. […] The number of in situ PLA signals per cell was counted by semi-automated image analysis. […]

[2] = sensitive cell lines A375, Mel888, treated vs untreated

## CCCS(=O)(=O)Nc1ccc(F)c(C(=O)c2c[nH]c3ncc(Cl)cc23)c1F [PLX-4720, N-[3-[(5-Chloro-1H-pyrrolo[2,3-b]pyridin-3-yl)carbonyl]-2,4-difluorophenyl]-1-propanesulfonamide]
A2058; A2058, short-term and long-term proliferation assays, Example 1
  sensitivity of the cell line compared to the other BRAF (V600E)-mutated melanoma cell lines: less sensitive
A2058; Homo sapiens, A2058 cell line, read-out: half-maximum inhibitory concentration (IC50)
  IC50: 2400 nM
Mel624; Mel624, short-term and long-term proliferation assays, Example 1
  sensitivity of the cell line compared to the other BRAF (V600E)-mutated melanoma cell lines: less sensitive
Mel624; Mel624 cell line, read-out: half-maximum inhibitory concentration (IC50)
  IC50: 4400 nM
A375
  IC50: 400 nM
SK-Mel28
  IC50: 400 nM
[1]; less sensitive / resistant cell lines Mel624, A2058
  Cap-ON and Cap-OFF interaction: didn't affect
[1]; [2]
  eIF4E-4EBP1 (Cap-OFF) interaction: increase
  eIF4E-eIF4G (Cap-ON) interaction: reduced signal counts
